According to patent US20210269434A1, “TRICYCLIC COMPOUNDS AS INHIBITORS OF KRAS” (Incyte Corporation, priority 2020, published 2021):
pIC50: −log10 of the molar value.

Key:
[1] = tested on: MIA PaCa-2 (KRAS G12C) cells; assay: Cellular pERK HTRF assay (KRAS_G12C pERK); assay type: cell-based, human; conditions: Homo sapiens, MIA PaCa-2, 4 hours incubation, read-out: G12C_pERK
Procedure, shortened: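 MIA PaCa-2 cells plated overnight, then exposed to compound for 4 h at 37 °C (G12C compounds). Phospho-ERK1/2 measured in lysates by HTRF (665/620 nm) after overnight antibody incubation; IC50 from percent inhibition versus log concentration.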

[2] = target: KRAS G12C (Homo sapiens, UniProt P01116, G12C); assay: GDP-GTP exchange assay (KRAS_G12C exchange); assay type: biochemical; conditions: bodipy-GDP loaded KRAS G12C 2.5 nM, SOS1 150 nM, GppNHp; 2 hours pre-incubation, 2 hours reaction; read-out: G12C_exchange
Sequence of KRAS G12C (P01116 1-188 isoform P01116-2 G12C): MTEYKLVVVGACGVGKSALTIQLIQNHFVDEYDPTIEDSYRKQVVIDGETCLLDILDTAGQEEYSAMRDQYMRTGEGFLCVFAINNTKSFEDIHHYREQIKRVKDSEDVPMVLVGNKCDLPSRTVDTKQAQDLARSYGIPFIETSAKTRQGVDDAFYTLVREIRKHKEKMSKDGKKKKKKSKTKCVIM
Procedure, shortened: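 Fluorescence exchange of bodipy-GDP for GppNHp, SOS1-driven, read at 485/520 nm; IC50 from four-parameter variable-slope fit. Both mutants used 2.5 nM final labelled protein and a 2 h compound pre-incubation. G12C reaction had 500 uM GppNHp and 150 nM SOS1 for 2 h; G12D ran 4 h.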

| Structure (SMILES) | pIC50 [1] | pIC50 [2] |
| --- | --- | --- |
| Cc1c(Cl)cc2[nH]ncc2c1-c1c(Cl)cc2c(nc(OC[C@@H]3CCCN3C)c3nnn([C@H]4CCN(C(=O)/C=C/CN(C)C)[C@H](CC#N)C4)c32)c1F [Example 183a, 2-((2S,4S)-4-(8-chloro-7-(6-chloro-5-methyl-1H-indazol-4-yl)-6-fluoro-4-(((S)-1-methylpyrrolidin-2-yl)-methoxy)-1H-[1,2,3]triazolo-[4,5-c]quinolin-1-yl)-1-((E)-4-(dimethylamino)but-2-enoyl)piperidin-2-yl)acetonitrile] | ≥ 7.00 | ≥ 7.00 |
| COC/C=C/C(=O)N1CC[C@H](n2cnc3c(OC[C@@H]4CCCN4C)nc4c(F)c(-c5c(C)c(Cl)cc6[nH]ncc56)c(Cl)cc4c32)C[C@H]1CC#N [Example 184a, 2-((2S,4S)-4-(8-chloro-7-(6-chloro-5-methyl-1H-indazol-4-yl)-6-fluoro-4-(((S)-1-methylpyrrolidin-2-yl)methoxy)-1H-imidazo[4,5-c]quinolin-1-yl)-1-((E)-4-methoxybut-2-enoyl)piperidin-2-yl)acetonitrile] | ≥ 7.00 | ≥ 7.00 |
| COC/C=C/C(=O)N1CC[C@H](n2nnc3c(N4CC(N(C)C)C4)nc4c(F)c(-c5c(C)c(Cl)cc6[nH]ncc56)c(Cl)cc4c32)C[C@H]1CC#N [Example 186a, 2-((2S,4S)-4-(8-chloro-7-(6-chloro-5-methyl-1H-indazol-4-yl)-4-(3-(dimethylamino)azetidin-1-yl)-6-fluoro-1H-[1,2,3]triazolo[4,5-c]quinolin-1-yl)-1-((E)-4-methoxybut-2-enoyl)piperidin-2-yl)acetonitrile] | ≥ 7.00 | ≥ 7.00 |
| C=CC(=O)N1CC[C@H](n2nnc3c(OC[C@@H]4CCCN4C)nc4c(F)c(-c5ccc(F)c(C)c5)c(Cl)cc4c32)C[C@H]1CC#N [Example 187, 2-((2S,4S)-1-acryloyl-4-(8-chloro-6-fluoro-7-(4-fluoro-3-methylphenyl)-4-(((S)-1-methylpyrrolidin-2-yl)methoxy)-1H-[1,2,3]triazolo[4,5-c]quinolin-1-yl)piperidin-2-yl)acetonitrile] | ≥ 7.00 | ≥ 7.00 |
| CC#CC(=O)N1CC[C@H](n2nnc3cnc4c(F)c(-c5c(C)c(Cl)cc6[nH]ncc56)c(Cl)cc4c32)C[C@H]1CC#N [Example 188, 2-((2S,4S)-1-(but-2-ynoyl)-4-(8-chloro-7-(6-chloro-5-methyl-1H-indazol-4-yl)-6-fluoro-1H-[1,2,3]triazolo[4,5-c]quinolin-1-yl)piperidin-2-yl)acetonitrile] | ≥ 7.00 | ≥ 7.00 |
| C=C(F)C(=O)N1CC[C@H](n2nnc3c(N4CC(N(C)C)C4)nc4c(F)c(-c5c(C)c(Cl)cc6[nH]ncc56)c(Cl)cc4c32)C[C@H]1CC#N [Example 189, 2-((2S,4S)-4-(8-chloro-7-(6-chloro-5-methyl-1H-indazol-4-yl)-4-(3-(dimethylamino)azetidin-1-yl)-6-fluoro-1H-[1,2,3]triazolo[4,5-c]quinolin-1-yl)-1-(2-fluoroacryloyl)piperidin-2-yl)acetonitrile] | ≥ 7.00 | ≥ 7.00 |
| C=CC(=O)N1CC[C@H](n2nnc3c(OC[C@@H]4CCCN4C)nc4c(F)c(-c5c(C)c(Cl)cc6[nH]ncc56)c(Cl)cc4c32)C[C@H]1CC#N [Example 190a, 2-((2S,4S)-1-acryloyl-4-(8-chloro-7-(6-chloro-5-methyl-1H-indazol-4-yl)-6-fluoro-4-(((S)-1-methylpyrrolidin-2-yl)methoxy)-1H-[1,2,3]triazolo[4,5-c]quinolin-1-yl)piperidin-2-yl)acetonitrile] | ≥ 7.00 | ≥ 7.00 |
| C=C(F)C(=O)N1CC[C@H](n2nnc3c(OC[C@@H]4CCCN4C)nc4c(F)c(-c5c(C)c(Cl)cc6[nH]ncc56)c(Cl)cc4c32)C[C@H]1CC#N [Example 192, 2-((2S,4S)-4-(8-chloro-7-(6-chloro-5-methyl-1H-indazol-4-yl)-6-fluoro-4-(((S)-1-methylpyrrolidin-2-yl)methoxy)-1H-[1,2,3]triazolo[4,5-c]quinolin-1-yl)-1-(2-fluoroacryloyl)piperidin-2-yl)acetonitrile] | ≥ 7.00 | ≥ 7.00 |
| COC/C=C/C(=O)N1CC[C@H](n2nnc3c(N4CC(C)(N(C)C)C4)nc4c(F)c(-c5c(C)c(Cl)cc6[nH]ncc56)c(C)cc4c32)C[C@H]1CC#N [Example 195a, 2-((2S,4S)-4-(7-(6-chloro-5-methyl-1H-indazol-4-yl)-4-(3-(dimethylamino)-3-methylazetidin-1-yl)-6-fluoro-8-methyl-1H-[1,2,3]triazolo[4,5-c]quinolin-1-yl)-1-((E)-4-methoxybut-2-enoyl)piperidin-2-yl)acetonitrile] | ≥ 7.00 | ≥ 7.00 |
| Cc1cc2c(nc(N3CC(C)(N(C)C)C3)c3nnn([C@H]4CCN(C(=O)/C=C/CN(C)C)[C@H](CC#N)C4)c32)c(F)c1-c1c(C)c(Cl)cc2[nH]ncc12 [Example 196a, 2-((2S,4S)-4-(7-(6-chloro-5-methyl-1H-indazol-4-yl)-4-(3-(dimethylamino)-3-methylazetidin-1-yl)-6-fluoro-8-methyl-1H-[1,2,3]triazolo[4,5-c]quinolin-1-yl)-1-((E)-4-(dimethylamino)but-2-enoyl)piperidin-2-yl)acetonitrile] | ≥ 7.00 | ≥ 7.00 |
| Cc1cc2c(nc(N3CC(C)(N(C)C)C3)c3nnn([C@H]4CCN(C(=O)/C=C/C(F)F)[C@H](CC#N)C4)c32)c(F)c1-c1c(C)c(Cl)cc2[nH]ncc12 [Example 197a, 2-((2S,4S)-4-(7-(6-chloro-5-methyl-1H-indazol-4-yl)-4-(3-(dimethylamino)-3-methylazetidin-1-yl)-6-fluoro-8-methyl-1H-[1,2,3]triazolo[4,5-c]quinolin-1-yl)-1-((E)-4,4-difluorobut-2-enoyl)piperidin-2-yl)acetonitrile] | ≥ 7.00 | ≥ 7.00 |

Now from value to compound:

| pIC50 [1] | pIC50 [2] | Structure (SMILES) |
| --- | --- | --- |
| ≥ 7.00 | ≥ 7.00 | CN(C)C/C=C/C(=O)N1CC[C@H](n2cnc3c(N4CC(N(C)C)C4)nc4c(F)c(-c5cncc6ccccc56)c(Cl)cc4c32)C[C@H]1CC#N [Example 175, 2-((2S,4S)-4-(8-chloro-4-(3-(dimethylamino)azetidin-1-yl)-6-fluoro-7-(isoquinolin-4-yl)-1H-imidazo[4,5-c]quinolin-1-yl)-1-((E)-4-(dimethylamino)but-2-enoyl)piperidin-2-yl)acetonitrile] |
| ≥ 7.00 | ≥ 7.00 | Cc1c(Cl)cc2[nH]ncc2c1-c1c(Cl)cc2c(nc(N3CC(N(C)C)C3)c3ncn([C@H]4CCN(C(=O)/C=C/CN(C)C)[C@H](CC#N)C4)c32)c1F [Example 176, 2-((2S,4S)-4-(8-chloro-7-(6-chloro-5-methyl-1H-indazol-4-yl)-4-(3-(dimethylamino)-azetidin-1-yl)-6-fluoro-1H-imidazo[4,5-c]quinolin-1-yl)-1-((E)-4-(dimethylamino)but-2-enoyl)piperidin-2-yl)acetonitrile] |
| ≥ 7.00 | ≥ 7.00 | CC#CC(=O)N1CC[C@H](n2cnc3c(N4CC(N(C)C)C4)nc4c(F)c(-c5c(C)c(Cl)cc6[nH]ncc56)c(Cl)cc4c32)C[C@H]1CC#N [Example 177a, 2-((2S,4S)-1-(but-2-ynoyl)-4-(8-chloro-7-(6-chloro-5-methyl-1H-indazol-4-yl)-4-(3-(dimethylamino)azetidin-1-yl)-6-fluoro-1H-imidazo[4,5-c]quinolin-1-yl)piperidin-2-yl)acetonitrile] |
| ≥ 7.00 | ≥ 7.00 | Cc1c(Cl)cc2[nH]ncc2c1-c1c(Cl)cc2c(nc(N3CC(N(C)C)C3)c3nnn([C@H]4CCN(C(=O)/C=C/CN(C)C)[C@H](CC#N)C4)c32)c1F [Example 179a, 2-((2S,4S)-4-(8-chloro-7-(6-chloro-5-methyl-1H-indazol-4-yl)-4-(3-(dimethylamino)-azetidin-1-yl)-6-fluoro-1H-[1,2,3]triazolo[4,5-c]quinolin-1-yl)-1-((E)-4-(dimethyl-amino)but-2-enoyl)piperidin-2-yl)acetonitrile] |
| ≥ 7.00 | ≥ 7.00 | CC#CC(=O)N1CC[C@H](n2cnc3c(OC[C@@H]4CCCN4C)nc4c(F)c(-c5c(C)c(Cl)cc6[nH]ncc56)c(Cl)cc4c32)C[C@H]1CC#N [Example 180, 2-((2S,4S)-1-(but-2-ynoyl)-4-(8-chloro-7-(6-chloro-5-methyl-1H-indazol-4-yl)-6-fluoro-4-(((S)-1-methylpyrrolidin-2-yl)methoxy)-1H-imidazo[4,5-c]quinolin-1-yl)piperidin-2-yl)acetonitrile] |
| ≥ 7.00 | ≥ 7.00 | Cc1c(Cl)cc2[nH]ncc2c1-c1c(Cl)cc2c(nc(OC[C@@H]3CCCN3C)c3ncn([C@H]4CCN(C(=O)/C=C/CN(C)C)[C@H](CC#N)C4)c32)c1F [Example 181a, 2-((2S,4S)-4-(8-chloro-7-(6-chloro-5-methyl-1H-indazol-4-yl)-6-fluoro-4-(((S)-1-methylpyrrolidin-2-yl)-methoxy)-1H-imidazo[4,5-c]quinolin-1-yl)-1-((E)-4-(dimethylamino)but-2-enoyl)piperidin-2-yl)acetonitrile] |
| ≥ 7.00 | ≥ 7.00 | CC#CC(=O)N1CC[C@H](n2nnc3c(OC[C@@H]4CCCN4C)nc4c(F)c(-c5c(C)c(Cl)cc6[nH]ncc56)c(Cl)cc4c32)C[C@H]1CC#N [Example 182, 2-((2S,4S)-1-(but-2-ynoyl)-4-(8-chloro-7-(6-chloro-5-methyl-1H-indazol-4-yl)-6-fluoro-4-(((S)-1-methylpyrrolidin-2-yl)methoxy)-1H-[1,2,3]triazolo[4,5-c]quinolin-1-yl)piperidin-2-yl)acetonitrile] |
